# Test results as given in patent US9095136B2, “2-IODO imidazole-derivatives” (BAYER INTELLECTUAL PROPERTY GMBH, priority 2011, dated 2015).
# Legend:
# [1] = tested on: Phytophthora infestans; assay type: in vivo; conditions: tomato, preventative, 500 ppm, evaluation 5 days after inoculation
# [2] = tested on: Sphaerotheca fuliginea; experiment: Example B: Sphaerotheca test (cucumber)/protective; assay type: in vivo; conditions: protective, 500 ppm, evaluation 7 days after inoculation
# Procedure: Solvent: 49 parts by weight of N,N-dimethylformamide Emulsifier: 1 part by weight of alkylaryl polyglycol ether To produce a suitable preparation of active compound, 1 part by weight of active compound is mixed with the stated amounts of solvent and emulsifier, and the concentrate is diluted with water to the desired concentration. To test for protective activity, young cucumber plants are sprayed with the preparation of active compound at the stated application rate. 1 day after the treatment, the plants are inoculated with a spore suspension of Sphaerotheca fuliginea. The plants are then placed in a greenhouse at 70% relative air humidity and a temperature of 23° C.
# [3] = tested on: Venturia inaequalis; experiment: Example D: Venturia test (apple)/protective; assay type: in vivo; conditions: protective, 100 ppm, evaluation 10 days after inoculation
# Procedure: (§1) Solvent: 24.5 parts by weight of acetone • 24.5 parts by weight of dimethylacetamide Emulsifier: 1 part by weight of alkylaryl polyglycol ether To produce a suitable preparation of active compound, 1 part by weight of active compound is mixed with the stated amounts of solvent and emulsifier, and the concentrate is diluted with water to the desired concentration. To test for protective activity, young plants are sprayed with the preparation of active compound at the stated application rate. […] The plants are then placed in a greenhouse at about 21° C. and a relative atmospheric humidity of about 90%.
# [4] = tested on: Septoria tritici; experiment: Example I: Septoria tritici test (wheat)/protective; assay type: in vivo; conditions: protective, 500 ppm, evaluation 21 days after inoculation
# Procedure: (§2) Solvent: 49 parts by weight of N,N-dimethylacetamide Emulsifier: 1 part by weight of alkylaryl polyglycol ether To produce a suitable preparation of active compound, 1 part by weight of active compound is mixed with the stated amounts of solvent and emulsifier, and the concentrate is diluted with water to the desired concentration. To test for protective activity, young plants are sprayed with the preparation of active compound at the stated application rate. After the spray coating has dried on, the plants are sprayed with a spore suspension of Septoria tritici.
# [5] = tested on: Pyricularia oryzae; assay type: in vivo; conditions: rice, protective, 500 ppm, evaluation 7 days after inoculation
# [6] = tested on: Fusarium graminearum; assay type: in vivo; conditions: barley (heading), protective, 500 ppm, evaluation 5 days after inoculation
# [7] = tested on: Phakopsora pachyrhizi; experiment: Example F: Phakopsora test (soya beans)/protective; assay type: in vivo; conditions: protective, 100 ppm, evaluation 7 days after inoculation
# Procedure: Solvents: 24.5 parts by weight of acetone • 24.5 parts by weight of dimethylacetamide Emulsifier: 1 part by weight of alkylaryl polyglycol ether To produce a suitable preparation of active compound, 1 part by weight of active compound is mixed with the stated amounts of solvent and emulsifier, and the concentrate is diluted with water to the desired concentration. To test for protective activity, young plants are sprayed with the preparation of active compound at the stated application rate.
# [8] = tested on: Fusarium nivale (var. majus); experiment: Example M: Fusarium nivale (var. majus) test (wheat)/protective; assay type: in vivo; conditions: protective, 500 ppm, evaluation 5 days after inoculation
# Procedure: as §2, with “Fusarium nivale (var. majus).” for “Septoria tritici.”
# [9] = tested on: Uromyces appendiculatus; experiment: Example Y: Uromyces test (beans)/protective, comparison; assay type: in vivo; conditions: protective, application rate 10 ppm, evaluation 10 days after inoculation
# Procedure: as §1, with “Solvents:” for “Solvent:”
# [10] = log P by HPLC on reversed-phase columns (EEC directive 79/831 Annex V.A8); assay type: physicochemical
# Procedure: The log P values were measured according to EEC directive 79/831 Annex V.A8 by HPLC (High Performance Liquid Chromatography) on reversed-phase columns, using the methods below: […] Calibration was carried out using unbranched alkan-2-ones (having from 3 to 16 carbon atoms) with known log P values (the log P values were determined by the retention times using linear interpolation between two successive alkanones). The lambda maX values were determined in the maxima of the chromatographic signals using the UV spectra from 200 nm to 400 nm.
# [11] = tested on: Sphaerotheca fuliginea; experiment: Example V: preventative in vivo test with Sphaerotheca fuliginea (powdery mildew on cucumber); conditions: 500 ppm, evaluation 12 days after inoculation
# Procedure: The active compounds tested are prepared by homogenization in a mixture of acetone/Tween/DMSO and then diluted with water to the desired active compound concentration. Cucumber plants (cultivar “Vert petit de Paris”), sown in a 50/50 peat/pozzolana soil substrate and cultivated at 24° C., are treated at the Z11 cotyledon stage by spraying with the active compound, prepared as above. As a control, plants are treated with the mixture of acetone/Tween/DMSO/water without the active compound. After 24 hours, the plants are inoculated by spraying the leaves with an aqueous suspension of Sphaerotheca fuliginea spores. The inoculated cucumber plants are incubated at about 20° C./25° C. and a relative atmospheric humidity of 60/70%.
# [12] = tested on: Pyrenophora teres; experiment: Example R: preventative in vivo test with Pyrenophora teres (net blotch on barley); conditions: 500 ppm, evaluation 12 days after inoculation
# Procedure: The active compounds tested are prepared by homogenization in a mixture of acetone/Tween/DMSO and then diluted with water to the desired active compound concentration. Barley plants (cultivar “Plaisant”), sown in a 50/50 peat/pozzolana soil substrate and cultivated at 22° C. (12 h)/20° C. (12 h), are treated at the 1-leaf stage (height 10 cm) by spraying with the active compound, prepared as above. As a control, plants are treated with the mixture of acetone/Tween/DMSO/water without the active compound. After 24 hours, the plants are inoculated by spraying the leaves with an aqueous suspension of Pyrenophora teres spores.
# [13] = tested on: Leptosphaeria nodorum; experiment: Example H: Leptosphaeria nodorum test (wheat)/protective; assay type: in vivo; conditions: protective, 500 ppm, evaluation 8 days after inoculation
# Procedure: as §2, with “Leptosphaeria nodorum.” for “Septoria tritici.”
compound,measurement,setting,value
"OC(Cc1ccccc1Cl)(Cn1ccnc1I)C1(Cl)CC1 (centres unmarked) [Example 1, 2-(1-chlorocyclopropyl)-1-(2-chlorophenyl)-3-(2-iodo-1H-imidazol-1-yl)propan-2-ol]",Efficacy %,[1],100%
same,Eff. %,[2],80%
same,Eff. %,[3],100%
same,Eff. %,[4],100%
same,Eff. %,[5],95%
same,Eff. %,[6],100%
same,Eff. %,[7],98%
same,Eff. %,[8],100%
same,Efficacy in %,[9],100%
same,chromatographic logP,"[10]; pH 2.7, logP",2.35
same,chromatographic logP,"[10]; pH 7.8, logP",3.38
same,Efficacy %,[11],100%
same,Efficacy %,[12],100%
same,Eff. %,[13],100%
